Data published in patent US12275734B1, “Pleuromutilin onium salt derivative containing a 3H-imidazo[4,5-c]pyridine side chain, and a preparation method and application thereof” (SHAANXI UNIVERSITY OF SCIENCE AND TECHNOLOGY, priority 2024, dated 2025).

How the values were obtained:
Test in all cases: MIC, broth microdilution
Type in all cases: cell-based
[1] = system: E. coli ATCC 25922; conditions: Escherichia coli, ATCC25922; E. coli ATCC 25922; read-out: Minimum inhibitory concentration E.c.^h
Procedure: (§1) The minimum inhibitory concentration of 3H-imidazo[4,5-C]pyridine pleuromutilin onium salt derivatives against the tested pathogenic microorganisms were determined by broth microdilution method, with valnemulin and retapamulin as positive controls.
(§2) The experimental strains included resistant Gram-positive bacteria: Methicillin-resistant S. aureus ATCC 33591; Methicillin-resistant S. aureus ATCC 43300; S. aureus ATCC 29213; Methicillin-resistant S. epidermidis ATCC 51625. Resistant Gram-negative bacteria: A. baumannii ATCC 19606; S. enterica ATCC14028; E. coli ATCC 25922; E. coli CMCC 44103. 9 clinically isolated resistant strains: MRSA-171; MRSA-575; MRSA-206; MRSA-222; MRSA-596; VRE-80; MDR-PA-126; MDR-KP-893; CR-AB-882.
(§3) (1) Preparation of MHB medium: Weigh 18.0 g of MHB medium pre-made powder, add it to 1 L of distilled water, heat and boil until completely dissolved, divide it into conical bottles, sterilize it by high pressure at 121° C. for 15 minutes, and set aside.
(§4) (2) Cultivate the experimental strain to the logarithmic growth phase: Under sterile conditions, inoculate the experimental strain into fresh MHB medium and culture it in a 37° C. constant temperature and humidity incubator for 16-24 hours. Adjust the bacterial solution concentration to 1.5×10^8 CFU/mL and then dilute it 200 times for later use.
(§5) (3) Preparation of storage solution: Weigh the sample to be tested, dissolve it in 1% DMSO solution, and prepare a storage solution with a concentration of 2560 μg/mL; weigh the positive control, dissolve it in sterile distilled water, and prepare a storage solution with a concentration of 2560 μg/mL.
(§6) (4) Preparation of bacterial suspension: Under sterile conditions, the experimental strain cultured to the logarithmic growth phase was calibrated to a 0.5 McFarland unit turbidity standard using MHB medium and then diluted at a ratio of 1:200 to prepare a bacterial suspension with a concentration of 5×10^5 CFU/mL for later use.
(§7) (5) Determination of MIC by two-fold microdilution method: Take a sterile 96-well plate, add 10 μL of the test compound at a concentration of 2560 μg/mL, and perform serial dilutions by the two-fold dilution method. At the same time, set up a negative control group without drug. Then add 190 μL of diluted bacterial solution to each well, so that the final bacterial solution concentration in each well is 5×10^5 CFU/mL, and incubate in a 37° C. constant temperature and humidity chamber for 24 hours.

[2] = system: S. enterica ATCC14028; conditions: Salmonella enterica; S. enterica ATCC14028; read-out: Minimum inhibitory concentration S.e.^g
Procedure: as §1, §2, §3, §4, §5, §6, §7

[3] = system: S. aureus ATCC 29213; conditions: Staphylococcus aureus, ATCC29213; S. aureus ATCC 29213; read-out: Minimum inhibitory concentration S.a.^d
Procedure: as §1, §2, §3, §4, §5, §6, §7

[4] = system: Methicillin-resistant S. aureus ATCC 33591; conditions: Staphylococcus aureus, ATCC 33591 / MRSA; Methicillin-resistant S. aureus ATCC 33591; read-out: Minimum inhibitory concentration MRSA^b
Procedure: as §1, §2, §3, §4, §5, §6, §7

[5] = system: Methicillin-resistant S. aureus ATCC 43300; conditions: Staphylococcus aureus, ATCC 43300 / MRSA; Methicillin-resistant S. aureus ATCC 43300; read-out: Minimum inhibitory concentration MRSA^c
Procedure: as §1, §2, §3, §4, §5, §6, §7

[6] = system: E.coli CMCC 44103; conditions: Escherichia coli, CMCC44103; E.coli CMCC 44103; read-out: Minimum inhibitory concentration E.c.^i
Procedure: as §1, §2, §3, §4, §5, §6, §7

[7] = system: Methicillin-resistant S. epidermidis ATCC 51625; conditions: Staphylococcus epidermidis, ATCC 51625 / MRSE; Methicillin-resistant S. epidermidis ATCC 51625; read-out: Minimum inhibitory concentration MRSE^e
Procedure: as §1, §2, §3, §4, §5, §6, §7

[8] = system: A. baumannii ATCC 19606; conditions: Acinetobacter baumannii, ATCC19606; A. baumannii ATCC 19606; read-out: Minimum inhibitory concentration A.b.^f
Procedure: as §1, §2, §3, §4, §5, §6, §7

SMILES	MIC [1]	MIC [2]	MIC [3]	MIC [4]	MIC [5]	MIC [6]	MIC [7]	MIC [8]
C=C[C@]1(C)C[C@@H](OC(=O)CSc2nc3cc[n+](Cc4cc(F)c(F)cc4F)cc3[nH]2)[C@]2(C)[C@H](C)CC[C@]3(CCC(=O)[C@H]32)[C@@H](C)[C@@H]1O [Compound g, 5-(2,4,5-trifluorobenzyl)-2-((2-(((3aR,4R,5R,7S,8S,9R,9aS,12R)-8-hydroxy-4,7,9,12-tetramethyl-3-oxo-7-vinyldecahydro-4,9a-propancyclopenta[8]cyclo-5-yl)oxy)-2-oxoethyl)thio)-3H-imidazo[4,5-C]pyridine-5-ium]	64 µg/mL	128 µg/mL	64 µg/mL	128 µg/mL	64 µg/mL	128 µg/mL	64 µg/mL	64 µg/mL
C=C[C@]1(C)C[C@@H](OC(=O)CSc2nc3cc[n+](Cc4cc(F)ccc4C#N)cc3[nH]2)[C@]2(C)[C@H](C)CC[C@]3(CCC(=O)[C@H]32)[C@@H](C)[C@@H]1O [Compound m, 5-(2-cyano-5-fluorobenzyl)-2-((2-(((3aR,4R,5R,7S,8S,9R,9aS,12R)-8-hydroxy-4,7,9,12-tetramethyl-3-oxo-7-vinyldecahydro-4,9a-propancyclopenta[8]cyclo-5-yl)oxy)-2-oxoethyl)thio)-3H-imidazo[4,5-C]pyridine-5-ium]	64 µg/mL	32 µg/mL	32 µg/mL	64 µg/mL	32 µg/mL	32 µg/mL	64 µg/mL	64 µg/mL
C=C[C@]1(C)C[C@@H](OC(=O)CSc2nc3cc[n+](Cc4ccc(Cl)cc4)cc3[nH]2)[C@]2(C)[C@H](C)CC[C@]3(CCC(=O)[C@H]32)[C@@H](C)[C@@H]1O [Compound e, 5-(4-chlorobenzyl)-2-((2-(((3aR,4R,5R,7S,8S,9R,9aS,12R)-8-hydroxy-4,7,9,12-tetramethyl-3-oxo-7-vinyldecahydro-4,9a-propancyclopenta[8]cyclo-5-yl)oxy)-2-oxoethyl)thio)-3H-imidazo[4,5-C]pyridine-5-ium]	32 µg/mL	32 µg/mL	8 µg/mL	32 µg/mL	16 µg/mL	16 µg/mL	16 µg/mL	16 µg/mL
C=C[C@]1(C)C[C@@H](OC(=O)CSc2nc3cc[n+](Cc4ccc(-c5ccccc5)cc4)cc3[nH]2)[C@]2(C)[C@H](C)CC[C@]3(CCC(=O)[C@H]32)[C@@H](C)[C@@H]1O [Compound j, 5-([1,1′-biphenyl]-4-ylmethyl)-2-((2-(((3aR,4R,5R,7S,8S,9R,9aS,12R)-8-hydroxy-4,7,9,12-tetramethyl-3-oxo-7-vinyldecahydro-4,9a-propancyclopenta[8]cyclo-5-yl)oxy)-2-oxoethyl)thio)-3H-imidazo[4,5-C]pyridine-5-ium]	64 µg/mL	8 µg/mL	4 µg/mL	32 µg/mL	16 µg/mL	8 µg/mL	32 µg/mL	16 µg/mL

The next lines start with the values.

MIC [1]	MIC [2]	MIC [3]	MIC [4]	MIC [5]	MIC [6]	MIC [7]	MIC [8]	SMILES
16 µg/mL	4 µg/mL	8 µg/mL	8 µg/mL	4 µg/mL	8 µg/mL	16 µg/mL	32 µg/mL	C=C[C@]1(C)C[C@@H](OC(=O)CSc2nc3cc[n+](Cc4ccc(Br)cc4)cc3[nH]2)[C@]2(C)[C@H](C)CC[C@]3(CCC(=O)[C@H]32)[C@@H](C)[C@@H]1O [Compound a, 5-(4-bromobenzyl)-2-((2-(((3aR,4R,5R,7S,8S,9R,9aS,12R)-8-hydroxy-4,7,9,12-tetramethyl-3-oxo-7-vinyldecahydro-4,9a-propancyclopenta[8]cyclo-5-yl)oxy)-2-oxoethyl)thio)-3H-imidazo[4,5-c]pyridin-5-ium]
32 µg/mL	32 µg/mL	16 µg/mL	8 µg/mL	32 µg/mL	32 µg/mL	8 µg/mL	16 µg/mL	C=C[C@]1(C)C[C@@H](OC(=O)CSc2nc3cc[n+](Cc4ccc(C(C)(C)C)cc4)cc3[nH]2)[C@]2(C)[C@H](C)CC[C@]3(CCC(=O)[C@H]32)[C@@H](C)[C@@H]1O [Compound k, 5-(4-(tert-butyl)benzyl)-2-((2-(((3aR,4R,5R,7S,8S,9R,9aS,12R)-8-hydroxy-4,7,9,12-tetramethyl-3-oxo-7-vinyldecahydro-4,9a-propancyclopenta[8]cyclo-5-yl)oxy)-2-oxoethyl)thio)-3H-imidazo[4,5-C]pyridine-5-ium]
4 µg/mL	16 µg/mL	32 µg/mL	16 µg/mL	8 µg/mL	32 µg/mL	16 µg/mL	16 µg/mL	C=C[C@]1(C)C[C@@H](OC(=O)CSc2nc3cc[n+](Cc4ccc(OC)cc4)cc3[nH]2)[C@]2(C)[C@H](C)CC[C@]3(CCC(=O)[C@H]32)[C@@H](C)[C@@H]1O [Compound d, 5-(4-methoxybenzyl)-2-((2-(((3aR,4R,5R,7S,8S,9R,9aS,12R)-8-hydroxy-4,7,9,12-tetramethyl-3-oxo-7-vinyldecahydro-4,9a-propancyclopenta[8]cyclo-5-yl)oxy)-2-oxoethyl)thio)-3H-imidazo[4,5-C]pyridine-5-ium]
32 µg/mL	16 µg/mL	64 µg/mL	32 µg/mL	64 µg/mL	16 µg/mL	32 µg/mL	64 µg/mL	C=C[C@]1(C)C[C@@H](OC(=O)CSc2nc3cc[n+](Cc4ccc(C(F)(F)F)cc4)cc3[nH]2)[C@]2(C)[C@H](C)CC[C@]3(CCC(=O)[C@H]32)[C@@H](C)[C@@H]1O [Compound b, 5-(4-trifluoromethyl)-2-((2-(((3aR,4R,5R,7S,8S,9R,9aS,12R)-8-hydroxy-4,7,9,12-tetramethyl-3-oxo-7-vinyldecahydro-4,9a-propancyclopenta[8]cyclo-5-yl)oxy)-2-oxoethyl)thio)-3H-imidazo[4,5-C]pyridine-5-ium]
16 µg/mL	4 µg/mL	4 µg/mL	8 µg/mL	2 µg/mL	8 µg/mL	4 µg/mL	8 µg/mL	C=C[C@]1(C)C[C@@H](OC(=O)CSc2nc3cc[n+](Cc4ccc([N+](=O)[O-])cc4)cc3[nH]2)[C@]2(C)[C@H](C)CC[C@]3(CCC(=O)[C@H]32)[C@@H](C)[C@@H]1O [Compound f, 5-(4-nitrobenzyl)-2-((2-(((3aR,4R,5R,7S,8S,9R,9aS,12R)-8-hydroxy-4,7,9,12-tetramethyl-3-oxo-7-vinyldecahydro-4,9a-propancyclopenta[8]cyclo-5-yl)oxy)-2-oxoethyl)thio)-3H-imidazo[4,5-C]pyridine-5-ium]
8 µg/mL	16 µg/mL	4 µg/mL	8 µg/mL	16 µg/mL	8 µg/mL	16 µg/mL	32 µg/mL	C=C[C@]1(C)C[C@@H](OC(=O)CSc2nc3cc[n+](Cc4ccc(F)cc4)cc3[nH]2)[C@]2(C)[C@H](C)CC[C@]3(CCC(=O)[C@H]32)[C@@H](C)[C@@H]1O [Compound c, 5-(4-fluorobenzyl)-2-((2-(((3aR,4R,5R,7S,8S,9R,9aS,12R)-8-hydroxy-4,7,9,12-tetramethyl-3-oxo-7-vinyldecahydro-4,9a-propancyclopenta[8]cyclo-5-yl)oxy)-2-oxoethyl)thio)-3H-imidazo[4,5-C]pyridine-5-ium]
